According to patent US11219664B2, “Composition for diagnosing, preventing, or treating vascular smooth muscle cell proliferative diseases using FGF12” (CHUNG-ANG UNIVERSITY INDUSTRY ACADEMIC COOPERATION …, priority 2015, dated 2022):

Key:
[1] = test system: human aortic smooth muscle cells (HASMCs); test: FGF12 expression regulation by PDGF-BB in HASMCs (RT-PCR, immunofluorescence); assay type: cell-based
Excerpt: (§1) Tissue sections and cells were stained with primary antibody against Ki67 (Dako Inc.), FGF12 (Abcam), phospho-p53 (p-p53; Cell Signaling Technology), α-smooth muscle actin (α-SMA; Sigma), or SM22α (Abcam) and proper fluorescence-labeled secondary antibody. Nuclei were stained with 4′,6-diamidino-2-phenylindole (DAPI). The stained cells were observed using a fluorescence microscope (Nikon). All images shown are representative of independent three experiments.
(§2) Total RNA of cells or tissues for reverse transcription-polymerase chain reaction (RT-PCR) was isolated with TRIzol reagent (Invitrogen). Next, cDNA was synthesized from total RNA using primers specific to corresponding genes and a Superscript first-strand synthesis kit (Invitrogen), and was amplified by PCR (30-35 cycles). Glyceraldehyde-3-phosphate dehydrogenase (GAPDH) was used as a loading control. Real-time PCR was performed using a SYBR-Green PCR master mix (Applied biosystems) and the StepOnePlus™ Real Time PCR System (Applied Biosystems). Data were analyzed according to ΔΔCt method, and gene expression values were normalized to GAPDH expression.
(§3) Human aortic vascular smooth muscle cells (HASMCs; ScienCell Research Laboratories) and human pulmonary […] vascular smooth muscle cell (HPASMC, ScienCell Research laboratories) were cultured in smooth muscle growth medium (SMGM, ScienCell Research Laboratories) or basal medium. For a compound inhibitor experiment, HASMCs and HPASMCs were pre-treated with pifithrin (10 μM; Sigma), LY294002 (20 μM; Cell Signaling Technology), PD98059 (50 μM; Cell Signaling Technology), U0 126 (10 μM; Cell Signaling Technology), SB203580 (50 μM; Cell Signaling Technology), and BIRB796 (10 μM; Merck) at 37° C. for 24 hours.

[2] = test system: human pulmonary aortic vascular smooth muscle cells (HPASMCs); test: FGF12 expression regulation by PDGF-BB in HPASMCs (RT-PCR, immunofluorescence); assay type: cell-based
Excerpt: as §1, §2, §3

[3] = test system: FGF12 promoter; test: Luciferase reporter assay with FGF12 promoter; assay type: cell-based, human; conditions: HASMCs, pGL3-FGF12 reporter, PDGF-BB 50 ng/ml versus removed
Method: For the luciferase reporter assay, approximately 2000 base pairs of the FGF12 5′-UTR were cloned into a firefly luciferase reporter vector (pGL3-phFGF12). HASMCs were co-transfected with an empty vector (pGL3-basic) or pGL3-phFGF12, together with a constitutively active β-galactosidase reporter plasmid as a transfection control. After 48 hours, luciferase and galactosidase activities were analyzed using a luciferase and galactosidase assay kit (Stratagene). The luciferase activity was normalized to galactosidase activity, and expressed as a relative value compared with the luciferase activity measured in HASMCs transfected with pGL3-basic and cultured in a medium containing PDGF-BB (50 ng/ml) for 1 day.

[4] = test system: HASMCs; test: Cell proliferation by Ki67 staining in HASMCs; assay type: cell-based, human; conditions: pifithrin 10 μM
Excerpt: as §1
(§4) For cell proliferation analysis, cells were inoculated triplicate in a 24-well plate, and cultured in the basal medium supplemented with 50 ng/ml platelet-derived growth factor-BB (PDGF-BB; R&D systems), 100 ng/ml Bone morphogenic protein-4 (BMP-4; R&D systems), or 10% FBS. Cell proliferation was determined by an MTS assay (MTS assay; Promega) or immunofluorescence assay using anti-Ki67 IgG (Dako). Five representative color images were randomly acquired from each sample for quantifying Ki67 stained cells (Ki67+ cells), and the percentage of Ki67+ cells was determined through dividing the mean value of Ki67+ cells by the total number of cells on each image.

[5] = test system: HPASMCs; test: Cell proliferation by Ki67 staining in HPASMCs; assay type: cell-based, human; conditions: pifithrin 10 μM
Excerpt: as §1, §4

[6] = test system: HPASMC; test: FGF12 expression regulation by BMP in HPASMC (RT-PCR, Western blotting); assay type: cell-based, human; conditions: for FGF12 protein expression / protein expression of vascular smooth muscle cell differentiation markers (α-SMA, SM22α): 30 ng/ml, 48 hours, western blotting; for level of FGF12 mRNA: 48 hours after addition to basal medium (10 and 30 ng/ml), RT-PCR
Method: as §2
For transfection for FGF12 overexpression, an expression vector (pCMV6-Entry having the c-terminal labeled Myc-DDK) encoding a rat homologous gene (Origene) having 100% amino acid homology with human FGF12 cDNA was used. HASMCs and HPASMCs were transfected with pCMV6-FGF12(pFGF12) or pCMV6-Entry (pEntry) control vector using Lipofectamien™ 2000 according to the protocol of the manufacturer, and selected using G418 (Sigma) for 2 weeks. For the inhibition of FGF12, p53 or BMPR2 expression, subconfluent HASMCs were transfected with specific or non-specific small interfering RNA (siRNA; GE Healthcare) using Lipofectamien™ 2000.
Cell and tissue lysates were separated by SDS-PAGE, and protein bands were transferred on blots. Blots were reacted with appropriate primary antibodies such as FGF12 (Abcam), p-p53 (Cell Signaling Technology), p53 (BD Biosciences), α-SMA (Sigma), SM22α (Abcam), SM-MHC, or β-actin (Santa Cruz biotechnology), followed by treatment with horseradish peroxidase-conjugated secondary antibodies.

[7] = 3 hours after PDGF-BB (50 ng/ml) added to basal medium, RT-PCR
[8] = after 24 hours of PDGF-BB stimulation

PDGF-BB: platelet-derived growth factor subunit B homodimer, vascular smooth muscle cell mitogen
mRNA level of FGF12 [1, 7]: greatly decreased | expression level of FGF12 (immunofluorescent experiment) ([1]; PDGF-BB 50 ng/ml, one day): decreased | mRNA level of FGF12 [1, 8]: further decreased | mRNA level of the contractible gene SM-HMC [1, 8]: decreased | mRNA level of the proliferation marker gene CDK1 [1, 8]: increased | mRNA level of FGF12 [2, 7]: greatly decreased | expression level of FGF12 (immunofluorescent experiment) ([2]; PDGF-BB 50 ng/ml, one day): decreased | mRNA level of FGF12 [2, 8]: further decreased | mRNA level of the contractible gene SM-HMC [2, 8]: decreased | transcriptional activity of the FGF12 promoter [3]: inhibits the expression of FGF12 at a transcriptional level

pifithrin
cell proliferation of Ad-FGF12-transfected cells [4]: significantly improving the cell proliferation | cell proliferation of Ad-FGF12-transfected cells [5]: significantly improving the cell proliferation

B1: BMP-7: bone morphogenetic protein, promotes differentiation and inhibits proliferation of vascular smooth muscle cells (protein, UniProt P18075 293-431, looked up)
Bone morphogenetic protein 7: STGSKQRSQNRSKTPKNQEALRMANVAENSSSDQRQACKKHELYVSFRDLGWQDWIIAPEGYAAYYCEGECAFPLNSYMNATNHAIVQTLVHFINPETVPKPCCAPTQLNAISVLYFDDSSNVILKKYRNMVVRACGCH
FGF12 protein expression [6]: increased | protein expression of vascular smooth muscle cell differentiation markers (α-SMA, SM22α) [6]: increased | level of FGF12 mRNA [6]: significantly increased

B2: BMP-4: Bone morphogenic protein-4 (protein)
chain: SPKHHSQRARKKNKNCRRHSLYVDFSDVGWNDWIVAPPGYQAFYCHGDCPFPLADHLNSTNHAIVQTLVNSVNSSIPKACCVPTELSAISMLYLDEYDKVVLKNYQEMVVEGCGCR
FGF12 protein expression [6]: increased | protein expression of vascular smooth muscle cell differentiation markers (α-SMA, SM22α) [6]: increased | level of FGF12 mRNA [6]: significantly increased
